In the test the target is T1, human NADK (ATP-NAD+ kinase), recombinant, C-terminal 6x-histidine tag (Homo sapiens, UniProt O95544).
T1 construct: 6x-histidine (C); made in house; host or cells: E. coli BL21(DE3)
T1 sequence (O95544 1-446): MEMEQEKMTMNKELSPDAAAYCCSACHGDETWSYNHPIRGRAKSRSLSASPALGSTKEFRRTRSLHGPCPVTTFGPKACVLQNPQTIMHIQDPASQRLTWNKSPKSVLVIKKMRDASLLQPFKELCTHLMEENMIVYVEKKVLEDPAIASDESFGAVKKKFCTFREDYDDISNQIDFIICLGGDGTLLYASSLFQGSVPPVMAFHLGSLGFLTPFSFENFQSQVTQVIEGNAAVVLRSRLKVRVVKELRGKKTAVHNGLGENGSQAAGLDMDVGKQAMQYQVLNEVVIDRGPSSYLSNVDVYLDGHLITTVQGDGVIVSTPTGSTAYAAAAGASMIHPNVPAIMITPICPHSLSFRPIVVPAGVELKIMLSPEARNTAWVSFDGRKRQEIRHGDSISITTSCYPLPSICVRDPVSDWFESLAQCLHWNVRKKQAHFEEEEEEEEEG
As to the kind of experiment: Affinity of human NADK for NAD+ compared with pigeon, duck and cat NADK. The settings on record: human NADK relative to pigeon. It is filed as biochemical. As for the experimental part: Recombinantly-expressed NADKs were explored for their reversible activities. It was hypothesized that the reversibility of the pigeon enzyme would enable compensation for the high picolinic acid […] (PC) activity present in pigeon livers, which inhibits NAD^+ biosynthesis from dietary tryptophan. […] It was determined that human NADK has an affinity for NAD^+ that is about 600 times higher than the pigeon, duck and cat isoforms. Without wishing to be bound by theory, NAD^+ serves as a product inhibitor for the reverse human NADK activity, which accounts for the observed irreversible behavior. While each of the NADKs explored were “reversible,” the reverse activity of the human enzyme is impeded via product inhibition. […]
Referring now to FIGS. 3A-3B, initial rate kinetic experiments were performed with pigeon, duck, cat, and human NADK enzymes in both the forward and reverse directions. […] In FIG. 3B, the production of ATP was detected in a coupled reaction with firefly luciferase where ATP was converted to light, the relative luminescence (RLU) was monitored, and a standard curve was used to calculate the ATP concentration.

The structures appear in SMILES notation.

As for `NC(=O)c1ccc[n+]([C@@H]2O[C@H](COP(=O)([O-])OP(=O)(O)OC[C@H]3O[C@@H](n4cnc5c(N)ncnc54)[C@H](O)[C@@H]3O)[C@@H](O)[C@H]2O)c1` [NAD], the “affinity for NAD^+, times higher than the pigeon, duck and cat isoforms” value is reported as “about 600 times”.

For the origin of these results see patent US20240318218A1 (The Trustees of Columbia University in The City of New York, priority 2023, published 2024).
